Laboratory results published in patent US5733918A, “Condensed-Indan derivatives and pharmaceutically acceptable salts thereof” (Taiho Pharmaceutical Co., Ltd., priority 1994, dated 1998).
Converted amounts (≈) assume the structure as drawn.

Tests used:
[1] = test system: P388 mouse leukemia cells; experiment: Antineoplastic action: increase in life span of CDF1 mice bearing P388 mouse leukemia cells; assay type: in vivo; conditions: P388, ip
Description: P388 mouse leukemia cells (1×10^6 cells/mouse) were injected intraperitoneally into CDF1 mouse. Each of the compound of the invention dissolved in 5% glucose or 5% dimethylsulfoxide at each of predetermined concentration was injected intraperitoneally on 1 and 5 days after injection. The antitumor activity thereof was evaluated as percentage of increase in life span (ILS %) compared to the mean survival of the untreated control group.

[2] = test system: P388 mouse leukemia cells; experiment: Cytotoxicity against P388 mouse leukemia cells (crystal violet staining); assay type: cell-based; conditions: 72 h, 3 days incubation, cell number reduced to 50% of control
Description: P388 mouse leukemia cells were plated into 96-well plate at the density of 2×10^3 cells/well. The compounds of the invention were dissolved in purified water or dimethylsulfoxide and the solution was diluted with medium to various concentrations and added to respective wells. After the plate was incubated for 3 days, the cultures were fixed with glutaraldehyde and the number of survived cells were determined by crystal violet staining method.

[3] = i.p. on 1 and 5 days after tumor injection, CDF1 mouse, vs untreated control

| Compound | IC50 [2] | further results |
| --- | --- | --- |
| CN(C)CCN(C)c1nc2c(c3ccccc13)-c1ccccc1C2=O [Compound 76] | 160 ng/mL (≈ 483 nM) | ILS at 100 mg/kg/day [1, 3]: 75% |
| O=C1c2ccccc2-c2c1c(NCCNCCO)nc1cc(O)ccc21 [Compound 55] | 0.95 ng/mL (≈ 2.72 nM) |  |
| CN(C)CCNc1nc2cc(N)ccc2c2c1C(=O)c1ccccc1-2 [Compound 41-a] | 11 ng/mL (≈ 33.1 nM) | ILS at 67 mg/kg/day [1, 3]: 306% |
| CN(C)CCNc1nc2ccccc2c2c1C(=O)c1cc3c(cc1-2)OCO3 [Compound 66-a] | 1.2 ng/mL (≈ 3.32 nM) | ILS at 44 mg/kg/day [1, 3]: 141% |
| CN1CCN(c2nc3cc(O)ccc3c3c2C(=O)c2ccccc2-3)CC1 [Compound 9-a] | 7.4 ng/mL (≈ 21.4 nM) | ILS at 150 mg/kg/day [1, 3]: 60% |
| CN1CCN(c2nc3c(c4ccccc24)-c2ccccc2C3=O)CC1 [Compound 75, 6-(1-(4-methylpiperazinyl))-7H-indeno[2,1-c]isoquinoline-7-on] | 450 ng/mL (≈ 1370 nM) |  |
| CNCCNc1nc2cc(O)ccc2c2c1C(=O)c1ccccc1-2.Cl.Cl.Cl [Compound 60, 6-(((methylamino)ethyl)amino)-3-hydroxy-7H-indeno[2,1-c]quinoline-7-on-trihydrochloride] | 0.66 ng/mL |  |
| CN(C)CCOc1nc2ccccc2c2c1C(=O)c1cc3c(cc1-2)OCO3 [Compound 64-a] | 0.87 ng/mL (≈ 2.4 nM) | ILS at 67 mg/kg/day [1, 3]: 153% |
| CN(C)CCOc1nc2cc(O)ccc2c2c1C(=O)c1ccccc1-2 [Compound 62] | 0.3 ng/mL (≈ 0.897 nM) |  |
| CN(C)CCNc1nc2ccccc2c2c1C(=O)c1ccccc1-2 [Compound 28-a] | 2 ng/mL (≈ 6.3 nM) | ILS at 67 mg/kg/day [1, 3]: 180% |
| CN(C)CCNc1nc2cc(O)ccc2c2c1C(=O)c1cc(Cl)ccc1-2 [Compound 23-a] | 0.11 ng/mL (≈ 0.299 nM) |  |
| O=C1c2ccccc2-c2c1c(NCCN1CCCC1)nc1cc(O)ccc21 [Compound 26-a] | 0.42 ng/mL (≈ 1.17 nM) | ILS at 30 mg/kg/day [1, 3]: 70.6% |
| CCN(CC)CCNc1nc2cc(O)ccc2c2c1C(=O)c1ccccc1-2 [Compound 7] | 0.65 ng/mL (≈ 1.8 nM) | ILS at 44 mg/kg/day [1, 3]: 223% |
| CN(C)CCNc1nc2cc(F)ccc2c2c1C(=O)c1ccccc1-2.Cl.Cl [Compound 2, 6-(((dimethylamino)ethyl)amino)-3-fluoro-7H-indeno[2,1-c]quinoline-7-on dihydrochloride] | 4.8 ng/mL | ILS at 67 mg/kg/day [1, 3]: 85% |
| CN(C)CCNc1nc2cc(O)ccc2c2c1C(=O)c1ccccc1-2 [Compound 3-a] |  | ILS at 10 mg/kg/day ([1]; Mus musculus, read-out: Increase in life span (ILS %)): 94.4% |
| COc1ccc2c3c(c(NCCN(C)C)nc2c1)C(=O)c1ccccc1-3 [Compound 1-a] | 24 ng/mL (≈ 69.1 nM) | ILS at 100 mg/kg/day [1, 3]: 68% |
| CN(C)CCNc1nc2ccc(O)cc2c2c1C(=O)c1ccccc1-2 [Compound 31-a] | 6 ng/mL (≈ 18 nM) | ILS at 30 mg/kg/day [1, 3]: 48.5% |
| CN(C)CCNc1nc2ccccc2c2c1C(=O)c1cc(O)ccc1-2 [Compound 47-a] | 1.3 ng/mL (≈ 3.9 nM) | ILS at 44 mg/kg/day [1, 3]: 130% |
| CN(C)CCNc1nc2cc(O)ccc2c2c1C(=O)c1cc(O)ccc1-2 [Compound 50-a] | 1.1 ng/mL (≈ 3.15 nM) | ILS at 20 mg/kg/day ([1]; dose 20 mg/kg/day, i.p. on 1 and 5 days after tumor injection, CDF1 mouse, vs untreated control): 45.2% |
| CN(C)CCNc1nc2ccccc2c2c1C(=O)c1ccc(O)cc1-2 [Compound 49-a] | 2 ng/mL (≈ 6 nM) | ILS at 150 mg/kg/day [1, 3]: 66.7% |
| CN(C)CCNc1nc2cc3c(cc2c2c1C(=O)c1ccccc1-2)OCO3 [Compound 73-a] | 13 ng/mL (≈ 36 nM) | ILS at 44 mg/kg/day [1, 3]: 129% |
